What was measured:
[1] = Model-based analysis of in vitro dissolution data (DLM, SIVA); type: physicochemical
Source text: The dissolution rate of spherical particles under sink and non-sink conditions within SIVA is described by an extension of the diffusion layer model (DLM) developed by Wang and Flanagan (Equation (3)). (3) DRt=-[…] where DRt is the dissolution rate at time t, N is the number of particles in a given particle size bin, and SDLM is a lumped correction scalar without regard to the mechanistic origin of the correction to the DLM. The SDLM estimates obtained with SIVA can be applied to the Simcyp PBPK simulator to reflect differences between media or formulations by simulating the respective in vivo dissolution; Deff is the effective diffusion coefficient; […] represent the thickness of the hydrodynamic boundary layer and the particle radius at time t, respectively; Ssurfacet corresponds to the saturation solubility at the particle surface (which may be different to the bulk fluid solubility, as discussed below); and Cbulkt is the concentration of dissolved drug in bulk solution at time t. The […] calculated by the fluid dynamics sub-model, which enables the hydrodynamic conditions to be described according to local conditions and stirring rate. Fluid dynamics-based […] recommended option for describing the hydrodynamics, as it permits a more rational translation of estimated parameters such as the SDLM to in vivo conditions, in which the hydrodynamics are usually quite different to in vitro experiments. […] Since the in vitro dissolution media have a somewhat […] buffer capacity than the intestinal fluids, the self-buffering effect at the solid surface can be underestimated. For this reason, the surface pH was calculated and directly input into SIVA. The calculation of the surface pH is based on the model first proposed by Mooney et al., which assumes that dissolution is the result of both chemical reaction between the conjugate base of the buffer species and the hydrogen cations released from the dissolving drug (in this case FLU) at the liquid-solid interface and the diffusion of the dissolved particles to the bulk. This model is very similar to the quasi-equilibrium model published by Ozturk et al., a derivative of which is implemented in SIVA as the default option for surface pH calculations. By fitting the DLM model to the observed dissolution data, we obtained SDLM estimates for each dissolution and two-stage test. In the case of two-stage testing, different SDLM values were obtained for the gastric and intestinal compartments, accounting for the changes in the respective in vitro conditions. Under fasted state intestinal conditions, FLU is freely soluble and therefore dissolution is not expected to be solubility limited. In that case, disintegration of the solid dosage form in the intestinal dissolution medium might be the rate-limiting step for the in vitro dissolution rate, especially in single dissolution experiments where the dosage form is directly exposed to the intestinal medium without any pre-treatment in a gastric medium. […] For the two-stage test experiments, the option was kept deactivated since disintegration in the stomach is already accounted for by the dissolution in the gastric medium. Both gastric and intestinal phases of the two-stage results were modelled simultaneously using the serial dilution model, which can account for more than one in vitro dissolution condition in the same experiment. Estimation of the relevant parameters was performed using the Nelder-Mead algorithm and equal weighting was applied. […]

[2] = cited from earlier work
UGT1A9 = conditions: Recombinant UGT; cited from earlier work
CYP2C9 2*/2* = conditions: Recombinant CYP (fu,mic = 1), cited from earlier work

Structure (SMILES): CC(C(=O)O)c1ccc(-c2ccccc2)c(F)c1 (stereo not shown) [flurbiprofen]
- SDLM (95% CI) ([1]; FaSSGF Level III): 0.0218 (0.0161–0.0274)
- SDLM (95% CI) ([1]; FaSSIF V3 Level I, listed as API): 0.00185
- SDLM (95% CI) ([1]; FaSSIF V3 Level I, listed as API Powder): 0.00185 (0.001–0.00312)
- SDLM (95% CI) ([1]; FaSSIF V3 Level II): 0.0965 (0.0544–0.139)
- SDLM (95% CI) ([1]; Ph. Eur. Phosphate Buffer): 0.00542 (0.00468–0.00617)
- CYP2C9 1*/3*-Vmax (CYP2C9 1*/3*): 9.55 pmol/min/pmol CYP
- Blood/plasma ratio [2]: 0.55
- Fraction unbound in plasma [2]: 0.01
- bound to plasma proteins [2]: > 99%
- Km (UGT1A9): 182 µM
- UGT1A9-Vmax (UGT1A9): 3.286 pmol/min/mg protein
- CYP2C9 2*/2*-Vmax (CYP2C9 2*/2*): 10.04 pmol/min/pmol CYP
- Km (CYP2C9 2*/2*; read-out: CYP2C9 2*/2*-Km): 10.4 µM

From article PMC7693160 (Pharmaceutics, 2020)
